Test results as given in US20240182445A1 (ONO PHARMACEUTICAL CO., LTD., priority 2019, published 2024).

Biological target: T1, human TREK-1 (Homo sapiens, UniProt O95069)
T1 construct: expressed in transfected cells
T1 sequence (O95069 1-426): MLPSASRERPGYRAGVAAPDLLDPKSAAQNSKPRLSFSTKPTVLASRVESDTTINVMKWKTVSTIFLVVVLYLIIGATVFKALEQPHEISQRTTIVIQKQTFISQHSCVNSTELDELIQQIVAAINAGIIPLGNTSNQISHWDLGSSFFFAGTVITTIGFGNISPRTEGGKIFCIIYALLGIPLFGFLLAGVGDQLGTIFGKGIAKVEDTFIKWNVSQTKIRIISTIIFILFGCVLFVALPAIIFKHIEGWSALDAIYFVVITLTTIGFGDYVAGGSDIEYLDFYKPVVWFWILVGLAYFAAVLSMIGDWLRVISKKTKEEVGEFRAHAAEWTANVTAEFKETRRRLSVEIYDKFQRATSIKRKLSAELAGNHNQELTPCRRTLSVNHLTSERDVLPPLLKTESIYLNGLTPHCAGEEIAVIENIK
Assay: TREK-1 Thallium (Tl+) flux assay, Method 1
Assay type: cell-based
Conditions: TREK-1 Thallium (Tl+) flux assay; no *^12 (Method 2) mark on these rows
Procedure, shortened: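 CHO-K1 cells stably expressing human TREK-1, loaded with Thallos dye, received compound or 0.3% DMSO vehicle for 10 min before thallium stimulus buffer. ΔRatio is fluorescence at 25 s after thallium addition over mean pre-addition fluorescence; % inhibition calculated from it.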

| IC50 [nM] | Compound |
| --- | --- |
| 700 | CC(C)(C)OC(=O)N1CCC(n2ncc(Cl)c2C(=O)Nc2ncc(C#Cc3cccs3)cc2F)CC1 [Compound 335, tert-butyl 4-(4-chloro-5-((3-fluoro-5-(thiophen-2-ylethynyl)pyridin-2-yl)carbamoyl)-1H-pyrazol-1-yl)piperidine-1-carboxylate] |
| 720 | CC(C)(C)OC(=O)N1CC[C@@H](n2ncc(Cl)c2C(=O)Nc2ncc(C#Cc3ccccc3)cc2F)[C@H](F)C1 [Compound 337, tert-butyl (3R,4R)-4-(4-chloro-5-((3-fluoro-5-(phenylethynyl)pyridin-2-yl)carbamoyl)-1H-pyrazol-1-yl)-3-fluoropiperidine-1-carboxylate] |
| 730 | Cc1cc(C#Cc2ccccc2)cnc1NC(=O)c1c(Cl)cnn1C[C@@H]1COCCO1 [Compound 338, (R)-1-((1,4-dioxan-2-yl)methyl)-4-chloro-N-(3-methyl-5-(phenylethynyl)pyridin-2-yl)-1H-pyrazole-5-carboxamide] |
| 730 | Cc1cc(C#Cc2ccc(F)cc2)cnc1NC(=O)c1c(Cl)cnn1CC1(F)CCN(C(=O)C(C)C)CC1 [Compound 339, 4-chloro-1-((4-fluoro-1-isobutyrylpiperidin-4-yl)methyl)-N-(5-((4-fluorophenyl)ethynyl)-3-methylpyridin-2-yl)-1H-pyrazole-5-carboxamide] |
| 740 | Cc1cc(C#Cc2ccccc2)cnc1NC(=O)c1c(Cl)cnn1CC1CC(C)OC(C)C1 (stereo not drawn) [Compound 340, 4-chloro-1-((2,6-dimethyltetrahydro-2H-pyran-4-yl)methyl)-N-(3-methyl-5-(phenylethynyl)pyridin-2-yl)-1H-pyrazole-5-carboxamide] |
| 740 | CC(=O)N1CC[C@@H](Cn2ncc(Cl)c2C(=O)Nc2ncc(C#Cc3ccc(F)cc3)cc2C)[C@H](F)C1 [Compound 341, 1-(((3S,4S)-1-acetyl-3-fluoropiperidin-4-yl)methyl)-4-chloro-N-(5-((4-fluorophenyl)ethynyl)-3-methylpyridin-2-yl)-1H-pyrazole-5-carboxamide] |
| 750 | Cc1cc(C#Cc2ccc(F)cc2)cnc1NC(=O)c1c(Cl)nn(C)c1-c1ccc2c(cnn2C)c1 [Compound 342, 3-chloro-N-(5-((4-fluorophenyl)ethynyl)-3-methylpyridin-2-yl)-1-methyl-5-(1-methyl-1H-indazol-5-yl)-1H-pyrazole-4-carboxamide] |
| 760 | Cc1cc(C#Cc2cccs2)cnc1NC(=O)c1c(Cl)cnn1C[C@H]1COCCO1 [Compound 343, (S)-1-((1,4-dioxan-2-yl)methyl)-4-chloro-N-(3-methyl-5-(thiophen-2-ylethynyl)pyridin-2-yl)-1H-pyrazole-5-carboxamide] |
| 760 | Cc1cc(C#Cc2ccc(F)cc2)cnc1NC(=O)c1c(Cl)cnn1C[C@@H]1CCCN(C(=O)OC(C)(C)C)C1 [Compound 344, tert-butyl (R)-3-((4-chloro-5-((5-((4-fluorophenyl)ethynyl)-3-methylpyridin-2-yl)carbamoyl)-1H-pyrazol-1-yl)methyl)piperidine-1-carboxylate] |
| 770 | Cc1cc(C#Cc2ccccc2)cnc1NC(=O)c1c(Cl)cnn1CC1CCCO1 (stereo not drawn) [Compound 345, 4-chloro-N-(3-methyl-5-(phenylethynyl)pyridin-2-yl)-1-((tetrahydrofuran-2-yl)methyl)-1H-pyrazole-5-carboxamide] |
| 770 | CC(C)(C)OC(=O)N1CCC2(CC1)CC(n1ncc(Cl)c1C(=O)Nc1ncc(C#Cc3ccccc3)cc1F)C2 [Compound 346, tert-butyl 2-(4-chloro-5-((3-fluoro-5-(phenylethynyl)pyridin-2-yl)carbamoyl)-1H-pyrazol-1-yl)-7-azaspiro[3.5]nonane-7-carboxylate] |
| 770 | CCC(=O)N1CCOC(Cn2ncc(Cl)c2C(=O)Nc2ncc(C#Cc3ccc(F)cc3)cc2C)C1 (stereo not drawn) [Compound 347, 4-chloro-N-(5-((4-fluorophenyl)ethynyl)-3-methylpyridin-2-yl)-1-((4-propionylmorpholin-2-yl)methyl)-1H-pyrazole-5-carboxamide] |
| 780 | Cc1cc(C#Cc2ccc(F)cc2)cnc1NC(=O)c1c(Cl)cnn1CC1(F)CCN(C(=O)C2CC2C)CC1 (stereo not drawn) [Compound 348, 4-chloro-1-((4-fluoro-1-(2-methylcyclopropane-1-carbonyl)piperidin-4-yl)methyl)-N-(5-((4-fluorophenyl)ethynyl)-3-methylpyridin-2-yl)-1H-pyrazole-5-carboxamide] |
| 810 | Cc1cc(C#Cc2cccc(F)c2)cnc1NC(=O)c1c(Cl)cnn1[C@H]1C[C@@H]2CN(C(=O)C(C)C)C[C@@H]2C1 [Compound 349, 4-chloro-N-{5-[(3-fluorophenyl)ethynyl]-3-methylpyridin-2-yl}-1-[(3aR,5s,6aS)-2-(2-methylpropanoyl)octahydrocyclopenta [c]pyrrol-5-yl]-1H-pyrazole-5-carboxamide] |
| 820 | Cc1cc(C#Cc2ccc(F)cc2)cnc1NC(=O)c1c(Cl)cnn1CC1CCN(C(=O)C(C)C)CC1(F)F (stereo not drawn) [Compound 350, 4-chloro-1-((3,3-difluoro-1-isobutyrylpiperidin-4-yl)methyl)-N-(5-((4-fluorophenyl)ethynyl)-3-methylpyridin-2-yl)-1H-pyrazole-5-carboxamide] |
| 820 | CC(=O)N[C@H]1C[C@H](n2ncc(Cl)c2C(=O)Nc2ncc(C#Cc3ccc(F)cc3)cc2C)C1 [Compound 351, 1-(trans-3-acetamidocyclobutyl)-4-chloro-N-(5-((4-fluorophenyl)ethynyl)-3-methylpyridin-2-yl)-1H-pyrazole-5-carboxamide] |
| 840 | Cc1cc(C#Cc2ccccc2)cnc1NC(=O)c1c(Cl)cnn1[C@H]1C[C@@H]2CN(C(=O)C(C)(C)C)C[C@@H]2C1 [Compound 352, 4-chloro-1-[(3aR,5s,6aS)-2-(2,2-dimethylpropanoyl)octahydrocyclopenta [c]pyrrol-5-yl]-N-[3-methyl-5-(phenylethynyl)pyridin-2-yl]-1H-pyrazole-5-carboxamide] |
| 850 | Cc1cc(C#Cc2ccccc2)cnc1NC(=O)c1c(Cl)cnn1[C@@H]1CCN(C(=O)OC(C)(C)C)C1 [Compound 353, tert-butyl (R)-3-(4-chloro-5-((3-methyl-5-(phenylethynyl)pyridin-2-yl)carbamoyl)-1H-pyrazol-1-yl)pyrrolidine-1-carboxylate] |
| 850 | Cc1cc(C#Cc2cccs2)cnc1NC(=O)c1c(Cl)cnn1[C@H]1C[C@@H]2CN(C(=O)C(C)(C)C)C[C@@H]2C1 [Compound 354, 4-chloro-1-[(3aR,5s,6aS)-2-(2,2-dimethylpropanoyl)octahydrocyclopenta [c]pyrrol-5-yl]-N-{3-methyl-5-[(thiophen-2-yl)ethynyl]pyridin-2-yl}-1H-pyrazole-5-carboxamide] |
| 850 | CCC(=O)N1CCCC(Cn2ncc(Cl)c2C(=O)Nc2ncc(C#Cc3ccc(F)cc3)cc2C)C1 (stereo not drawn) [Compound 355, 4-chloro-N-(5-((4-fluorophenyl)ethynyl)-3-methylpyridin-2-yl)-1-((1-propionylpiperidin-3-yl)methyl)-1H-pyrazole-5-carboxamide] |
| 860 | CC(=O)N1CCC(Cn2ncc(Cl)c2C(=O)Nc2ncc(C#Cc3ccccc3F)cc2C)CC1 [Compound 356, 1-((1-acetylpiperidin-4-yl)methyl)-4-chloro-N-(5-((2-fluorophenyl)ethynyl)-3-methylpyridin-2-yl)-1H-pyrazole-5-carboxamide] |
| 870 | Cc1cc(C#Cc2ccccc2)cnc1NC(=O)c1c(Cl)cnn1[C@H]1C[C@@H](NC(=O)OC(C)(C)C)C1 [Compound 357, tert-butyl (cis-3-(4-chloro-5-((3-methyl-5-(phenylethynyl)pyridin-2-yl)carbamoyl)-1H-pyrazol-1-yl)cyclobutyl)carbamate] |
| 880 | Cc1cc(C#Cc2ccccc2)cnc1NC(=O)c1c(Cl)cnn1C1CCCC(NC(=O)OC(C)(C)C)C1 (stereo not drawn) [Compound 358, tert-butyl (3-(4-chloro-5-((3-methyl-5-(phenylethynyl)pyridin-2-yl)carbamoyl)-1H-pyrazol-1-yl)cyclohexyl)carbamate] |
| 900 | CC(=O)N1C[C@H]2C[C@H](n3ncc(Cl)c3C(=O)Nc3ncc(C#Cc4ccccc4F)cc3C)C[C@H]2C1 [Compound 359, 1-[(3aR,5s,6aS)-2-acetyloctahydrocyclopenta[c]pyrrol-5-yl]-4-chloro-N-{5-[(2-fluorophenyl)ethynyl]-3-methylpyridin-2-yl}-1H-pyrazole-5-carboxamide] |
| 900 | CC(C)(C)OC(=O)N[C@H]1CC[C@H](n2ncc(Cl)c2C(=O)Nc2ncc(C#Cc3ccccc3)cc2F)CC1 [Compound 360, tert-butyl (trans-4-(4-chloro-5-((3-fluoro-5-(phenylethynyl)pyridin-2-yl)carbamoyl)-1H-pyrazol-1-yl)cyclohexyl)carbamate] |
| 910 | O=C(Nc1ncc(C#Cc2ccccc2)cc1Cl)c1c(Cl)cnn1C[C@H]1COCCO1 [Compound 361, (S)-1-((1,4-dioxan-2-yl)methyl)-4-chloro-N-(3-chloro-5-(phenylethynyl)pyridin-2-yl)-1H-pyrazole-5-carboxamide] |
| 910 | Cc1cc(C#Cc2ccccc2)cnc1NC(=O)c1c(Cl)nn(C)c1-c1ccc2c(cnn2C)c1 [Compound 364, 3-chloro-1-methyl-5-(1-methyl-1H-indazol-5-yl)-N-(3-methyl-5-(phenylethynyl)pyridin-2-yl)-1H-pyrazole-4-carboxamide] |
